PubChem BioAssay AID977624 (Broad Institute, 2014)
Inconclusive results are not listed. The source made the active and inactive calls.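 How the source made its calls: active means compound lowering the normal-ribosome reporter at least twice as much as the humanized-ribosome reporter, growth loss under a set limit; inconclusive means no clear call, values can overlap the other calls; inactive means the rest.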

system: E. coli mixed culture (wild-type GFP + h34 RFP) total growth, OD600, 24 h; assay: growth inhibition of wild-type GFP E. coli, dose response, h34 mutant RFP, cherry-pick (AID 977624);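 further: wild-type GFP strain co-cultured with humanized h34 ribosome RFP strain in same well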; details: E. coli mixed culture (wild-type GFP + h34 RFP), 24 h; measured here: total OD600 growth

Structure (SMILES) | AC50 [µM]
O=C(c1ccc2c(c1)CCN2S(=O)(=O)c1ccccc1)N1CCN(c2ccccc2)CC1 | > 100
Cc1ccsc1C(=O)C1CCCN(Cc2cc(F)ccc2-n2cccn2)C1 (stereo unspecified) | > 100
CC(=O)N1CCN(c2cc(N3CCCC3)c(F)cc2[N+](=O)[O-])CC1 | > 100
COc1cccc(N2CCN(c3ccc(S(=O)(=O)N4CCN(C)CC4)cc3[N+](=O)[O-])CC2)c1 | > 100
Cc1nc(SCC(=O)Nc2ccc3c(c2)OCCO3)nc(C)c1C | > 100
CN(C)Cc1nc2ccccc2c(=O)n1Cc1nc(-c2cccc([N+](=O)[O-])c2)cs1 | > 100
O=C(CC1C(=O)NCCN1CC1CCCCC1)NCc1ccc(F)cc1F (stereo unspecified) | > 100
CCOC(=O)c1c(C)[nH]c(C)c1S(=O)(=O)NCCN1CCN(c2ccccc2F)CC1 | > 100
CC(=O)Nc1cccc(NC(=O)CSc2ccc(-c3cccnc3)nn2)c1 | > 100
O=C1c2ccccc2NC(c2ccc(-c3cccc([N+](=O)[O-])c3)o2)N1O (stereo unspecified) | > 100
C=CCN(CC(O)c1cccc([N+](=O)[O-])c1)C(C)CCc1ccccc1 (stereo unspecified) | > 100
COc1ccccc1NC(=O)CSc1nccn1Cc1ccc(F)cc1 | > 100
CCCN(Cc1ccco1)S(=O)(=O)c1ccc(OC)c(OC)c1 | > 100
CCOc1ccc(CCNC(=O)CCn2ccc3cc(S(=O)(=O)N4CCCC4)ccc32)cc1 | > 100
Cc1noc(C)c1NC(=O)N(C)C[C@H]1OCCCC[C@@H](C)Oc2ccc(NC(=O)Nc3cccc4ccccc34)cc2C(=O)N([C@@H](C)CO)C[C@H]1C | > 100
Cc1cccc(-c2ccc([C@H]3[C@H](CO)N4CCCCN(S(=O)(=O)c5ccccc5C)C[C@@H]34)cc2)c1 | > 52
Cc1ccccc1COc1ccc(-c2nn[nH]n2)cc1 | > 100
Cc1cccc(OCCC(=O)Nc2ccc(F)c(F)c2)c1 | > 100
O=C(Nc1cc(S(=O)(=O)N2CCOCC2)ccc1N1CCOCC1)c1ccc([N+](=O)[O-])s1 | > 100
CCn1cc(CCC(=O)NCCc2ccccc2)c2ccccc21 | > 100
CC(=O)Nc1cccc(-c2ccnc3c2CC(C(=O)Nc2ccc4c(c2)OCO4)O3)c1 (stereo unspecified) | > 100
O=C(Nc1cccc(Cl)c1)N1C[C@@H]2[C@H](c3ccccc31)[C@H](CO)N2Cc1ccncc1 | > 100
CC(=O)c1cccc(NC(=O)COC(=O)CCC(=O)c2ccc(F)cc2)c1 | > 100
CCOC(=O)c1cc(-c2ccc(OC)cc2)n[nH]1 | > 100
CC1CCN(c2ccc3nnc(CCC(=O)Nc4cccc(F)c4)n3n2)CC1 | > 100
C=CCn1c(SCC(=O)Nc2ccc3c(c2)OCCO3)nnc1-c1ccco1 | > 100
CCSc1nc2ccccc2c(=O)n1CCc1ccc(OC)c(OC)c1 | > 100
CO[C@@H]1CN(C)C(=O)c2cc(NC(=O)C3CCCC3)ccc2OC[C@@H](C)N(C(=O)Nc2ccc(C(F)(F)F)cc2)C[C@H]1C | > 100

system: E. coli wild-type GFP strain growth, fluorescence, 24 h; assay: as above; details: not given

Structure (SMILES) | AC50
Cc1ccsc1C(=O)C1CCCN(Cc2cc(F)ccc2-n2cccn2)C1 (stereo unspecified) | > 100 µM (inactive)
CC(=O)N1CCN(c2cc(N3CCCC3)c(F)cc2[N+](=O)[O-])CC1 | > 100 µM (inactive)
COc1cccc(N2CCN(c3ccc(S(=O)(=O)N4CCN(C)CC4)cc3[N+](=O)[O-])CC2)c1 | > 100 µM (inactive)
O=C(Nc1cccc(-c2cn3ccccc3n2)c1)c1ccccc1 | > 100 µM (inactive)
Fc1cccc(Cc2c(-c3ccco3)nc3c4ccccc4ccn23)c1 | > 100 µM (inactive)
Cc1cccc(-c2ccc([C@H]3[C@@H](CO)N4CCCCN(S(=O)(=O)c5ccccc5C)C[C@H]34)cc2)c1 | > 52 µM (inactive)
Cc1ccc(NC(=O)CN(C)S(=O)(=O)c2cccc3cccnc23)cc1F | > 100 µM (inactive)
Cc1ccc(-n2nc(C)c3c(C)c(CCC(=O)O)c(C)nc32)cc1C | > 100 µM (inactive)
Cc1ccc2oc(C(=O)N(CCO)Cc3ccccc3)c(C)c2c1 | > 100 µM (inactive)
O=C(NCc1nc2ccccc2[nH]1)c1ccc(S(=O)(=O)N2CCCC2)cc1 | > 100 µM (inactive)
CC(C)(C)C1CCC(OCC(O)CN2CCN(c3ccccn3)CC2)CC1 (stereo unspecified) | > 100 µM (inactive)
COc1ccc(NC(=O)CN(c2ccccc2OC)S(=O)(=O)c2cccs2)cc1Cl | > 100 µM (inactive)
O=C(O)c1ccc2c(c1)N(Cc1ccc(F)cc1)C(=O)c1ccccc1S2 | > 100 µM (inactive)
